Results: publication PMC3064523 (Clinical cancer research : an official journal of the …, 2010)
Values joined by “and” are separate entries in the source; they are usually repeats but may differ in a detail not shown here. Identical values can stand only once. “Also recorded” adds a separate entry of the source. Like-named read-outs stand apart in the source and are kept apart here.

Legend:
[1] = tested on: children with refractory solid or CNS tumors; test: Phase 1 trial: dose-limiting and non-dose-limiting toxicities of oral VPA; assay type: in vivo, human; settings: for Description of DLTs: cycle 1
[2] = assay type: in vivo, human; settings: for Total VPA / Free VPA: at PBMC sampling; for CL/F: CL/F (apparent total body clearance) Median +/− SD; for half-life: t1/2 Median +/− SD
[3] = tested on: Histone H3 acetylation in PBMCs; test: PBMC histone H3 acetylation, sandwich ELISA; assay type: in vivo, human; settings: for Post-VPA/Pre-VPA AcH3: steady state trough
[4] = tested on: Histone H4 acetylation in PBMCs; test: PBMC histone H4 acetylation, sandwich ELISA; assay type: in vivo, human; settings: steady state trough
[5] = tested on: children with newly diagnosed high-grade or brainstem gliomas; test: Ongoing phase II trial of VPA and radiation; assay type: in vivo, human; settings: seven children; VPA trough concentrations of 85–115 mcg/ml
human cancers = settings: pre-clinical studies; cited from earlier work
[6] = tested on: PBMC histone acetylation (AcH3 and AcH4); settings: 4 hours after a dose of VPA; cited from earlier work
histone acetylation = settings: at the time of maximal drug concentration; cited from earlier work
[7] = Cycle 1 (16 total cycle), 16 evaluable patients
[8] = Cycle 2 to 7 (15 total cycles), 16 evaluable patients
[9] = human, plasma, po, Steady State, Free VPA (n = 4), oral
[10] = human, plasma, po, Steady State, Total VPA (n = 4), oral

In the case of `CCCC(CCC)C(=O)O` [VPA, Valproic acid], the “Description of DLTs” value ([1]; Cohort 0 (trough VPA level 75–100 mcg/ml), TID dosing) was “None”, the “Description of DLTs” value ([1]; Cohort 1 (trough VPA level 100–150 mcg/ml), BID dosing) was “grade 3 somnolence; also recorded: Somnolence (1)” and the “Description of DLTs” value ([1]; Cohort 1 (trough VPA level 100–150 mcg/ml), TID dosing) was “grade-3 somnolence and grade-5 hemorrhage/hemothorax; also recorded: Somnolence (1) Pulmonary hemorrhage (1) Dyspnea (1) Hypoxia (1) Hypotension (1) Hypocalcemia (1)”. For the same compound, the “Anemia, non-dose limiting, maximum Grade 1” value [1, 7] was 3, the “Anemia, non-dose limiting, maximum Grade 2” value [1, 7] was 2 and the “Anemia, non-dose limiting, maximum Grade 4” value [1, 7] was 1. The “Dizziness, non-dose limiting, maximum Grade 1” value [1, 7] was 4, the “Fatigue, non-dose limiting, maximum Grade 1” value [1, 7] was 3 and the “Fatigue, non-dose limiting, maximum Grade 2” value [1, 7] was 2. The “Headache, non-dose limiting, maximum Grade 1” value [1, 7] was 1, the “Headache, non-dose limiting, maximum Grade 2” value [1, 7] was 1 and the “Hypoalbuminemia, non-dose limiting, maximum Grade 1” value [1, 7] was 1. The “Hypoalbuminemia, non-dose limiting, maximum Grade 2” value [1, 7] was 2, the “Leukopenia, non-dose limiting, maximum Grade 1” value [1, 7] was 5 and the “Leukopenia, non-dose limiting, maximum Grade 2” value [1, 7] was 1. For the same compound, the “Lymphopenia, non-dose limiting, maximum Grade 1” value [1, 7] was 4, the “Lymphopenia, non-dose limiting, maximum Grade 2” value [1, 7] was 1 and the “Lymphopenia, non-dose limiting, maximum Grade 4” value [1, 7] was 1. The “Nausea, non-dose limiting, maximum Grade 1” value [1, 7] was 1, the “Nausea, non-dose limiting, maximum Grade 3” value [1, 7] was 1 and the “Neutropenia, non-dose limiting, maximum Grade 1” value [1, 7] was 1. The “Somnolence, non-dose limiting, maximum Grade 2” value [1, 7] was 1, the “Thrombocytopenia, non-dose limiting, maximum Grade 1” value [1, 7] was 6 and the “Thrombocytopenia, non-dose limiting, maximum Grade 2” value [1, 7] was 2. For the same compound, the “Vomiting, non-dose limiting, maximum Grade 2” value [1, 7] was 2, the “Anemia, non-dose limiting, maximum Grade 1” value [1, 8] was 2 and the “Anemia, non-dose limiting, maximum Grade 2” value [1, 8] was 1. For the same compound, the “Dizziness, non-dose limiting, maximum Grade 1” value [1, 8] was 1, the “Fatigue, non-dose limiting, maximum Grade 2” value [1, 8] was 1 and the “Headache, non-dose limiting, maximum Grade 2” value [1, 8] was 1. The “Leukopenia, non-dose limiting, maximum Grade 2” value [1, 8] was 1, the “Leukopenia, non-dose limiting, maximum Grade 3” value [1, 8] was 1 and the “Lymphopenia, non-dose limiting, maximum Grade 1” value [1, 8] was 2. The “Lymphopenia, non-dose limiting, maximum Grade 3” value [1, 8] was 1, the “Neutropenia, non-dose limiting, maximum Grade 2” value [1, 8] was 1 and the “Neutropenia, non-dose limiting, maximum Grade 3” value [1, 8] was 1. The “Neutropenia, non-dose limiting, maximum Grade 4” value [1, 8] was 1, the “Thrombocytopenia, non-dose limiting, maximum Grade 1” value [1, 8] was 2 and the “Thrombocytopenia, non-dose limiting, maximum Grade 4” value [1, 8] was 1. For the same compound, the “Total VPA” value ([2]; Patient 536584) was 81.0 µg/mL, the “Total VPA” value ([2]; Patient 712904) was 100.9 µg/mL and the “Total VPA” value ([2]; Patient 714036) was 109.0 µg/mL. The “Total VPA” value ([2]; Patient 734297) was 78.2 µg/mL, the “Free VPA” value ([2]; Patient 747001) was 19.1 µg/mL and the “Total VPA” value ([2]; Patient 747001) was 90.9 µg/mL. The “Total VPA” value ([2]; Patient 752294) was 134.1 µg/mL, the “Free VPA” value ([2]; Patient 757318) was 36.6 µg/mL and the “Total VPA” value ([2]; Patient 757318) was 90.1 µg/mL. For the same compound, the “Free VPA” value ([2]; Patient 769495) was 8.1 µg/mL, the “Total VPA” value ([2]; Patient 769495) was 77.0 µg/mL and the “Free VPA” value ([2]; Patient 770059) was 11 µg/mL. For the same compound, the “Total VPA” value ([2]; Patient 770059) was 105.7 µg/mL, the “Free VPA” value ([2]; Patient 770113) was 8 µg/mL and the “Total VPA” value ([2]; Patient 770113) was 55.7 µg/mL. The “Mean steady state VPA dose” value ([2]; VPA concentration 75–100 mcg/ml, syrup and capsules (n = 2)) was 12.5 ± 3.5 mg/kg, the “Mean steady state VPA dose” value ([2]; VPA concentration 75–100 mcg/ml, syrup only (n = 4)) was 17.5 ± 2.9 mg/kg and the “Mean steady state VPA dose” value ([2]; VPA concentrations 100–150 mcg/ml, syrup and capsules (n = 8)) was 41.3 ± 20.7 mg/kg. For the same compound, the “Mean steady state VPA dose” value ([2]; VPA concentrations 100–150 mcg/ml, syrup only (n = 10)) was 36.0 ± 27.7 mg/kg, the concentration at 9 weeks ([2]; human, plasma, oral) was 123 µg/mL and the concentration at 3 days ([2]; human, plasma, oral, 25 mg/kg/day) was 172 µg/mL. For the same compound, the Vd/F ([2]; human, plasma, po, 25 mg/kg/day) was 0.12 L/kg, the CL/F ([2]; human, plasma, po, 25 mg/kg/day, First dose, Total VPA (n = 4), oral) was 0.2 mL/min/kg and the CL/F [2, 9] was 0.87 mL/min/kg. The CL/F [2, 10] was 0.133 mL/min/kg, the half-life [2, 9] was 6.5 h and the half-life [2, 10] was 11.4 h. For the same compound, the “Mean final dose of VPA” value ([2]; starting dose 25 mg/kg/day divided b.i.d., trough above 100 mcg/ml) was “exceeded 50 mg/kg/day”, the “Number of dose escalations to achieve targeted concentrations (mean ± SD)” value ([2]; t.i.d. dosing) was 1.3 ± 0.5 and the “Mean final dose of VPA” value ([2]; t.i.d., starting dose 15 mg/kg/day) was “less than 20 mg/kg/day”. The “Free VPA concentration as % of total concentration (mean +/− SD)” value (shortened to “Free VPA concentration as % … (mean +/− SD)”) ([2]; total VPA concentration exceeded 125 mcg/ml, 8 measurements) was 44.9 +/− 15.8%, the “Free VPA concentration as % … (mean +/− SD)” value ([2]; total VPA concentrations below 100 mcg/ml, 32 measurements) was 16.8 +/− 6.9% and the “Free VPA concentration as % … (mean +/− SD)” value ([2]; total VPA concentrations between 100–125 mcg/ml, 17 measurements) was 21.3 +/− 11.5%. The “Fraction of free VPA” value ([2]; until total VPA concentrations exceeded 125 mcg/ml) was “less than 0.25”, the “Patients with reduced post-treatment AcH3 and AcH4 levels in PBMCs” value ([3]; 10 patients studied) was “Five” and the “Patients with increased AcH3 and AcH4 levels in PBMCs” value ([3]; 10 patients studied, at trough VPA exposure) was “Five and 5 out of 10”. The “Post-VPA/Pre-VPA AcH3” value ([3]; Patient 712904) was 0.75, the “Post-VPA/Pre-VPA AcH3” value ([3]; Patient 714036) was 0.93 and the “Post-VPA/Pre-VPA AcH3” value ([3]; Patient 734297) was 1.51. For the same compound, the “Post-VPA/Pre-VPA AcH3” value ([3]; Patient 747001) was 0.43, the “Post-VPA/Pre-VPA AcH3” value ([3]; Patient 757318) was 1.44 and the “Post-VPA/Pre-VPA AcH3” value ([3]; Patient 769495) was 1.38. The “Post-VPA/Pre-VPA AcH3” value ([3]; Patient 770113) was 0.90, the “Patients with increased PBMC histone acetylation” value ([3]; of patients studied, steady state, H3 and H4) was 50% and the “Post-VPA/Pre-VPA AcH4” value ([4]; Patient 712904) was 0.75. For the same compound, the “Post-VPA/Pre-VPA AcH4” value ([4]; Patient 714036) was 0.87, the “Post-VPA/Pre-VPA AcH4” value ([4]; Patient 734297) was 1.11 and the “Post-VPA/Pre-VPA AcH4” value ([4]; Patient 747001) was 0.47. The “Post-VPA/Pre-VPA AcH4” value ([4]; Patient 757318) was 1.55, the “Post-VPA/Pre-VPA AcH4” value ([4]; Patient 769495) was 2.45 and the “Post-VPA/Pre-VPA AcH4” value ([4]; Patient 770113) was 0.70. The “Toxicity of radiation and VPA” value [5] was “without encountering neuro-toxicities or other dose-limiting toxicities”, the “Threshold VPA concentration associated with anti-tumor activity” value (human cancers) was “exceeded 100 mcg/ml” and the “Increases in AcH3 and AcH4 in PBMC” value [6] was “observed in all patients”.
For `C/C=C1\NC(=O)[C@H]2CSSCC/C=C/[C@H](CC(=O)N[C@H](C(C)C)C(=O)N2)OC(=O)[C@H](C(C)C)NC1=O` [depsipeptide], the Histone hyper-acetylation (histone acetylation) is listed as “histone hyper-acetylation in all patients”.
